Several values for one entry are separate records, joined by “and”; a condition that tells them apart may be missing. Identical values can stand only once. Peptide text beside a SMILES is read from it. * marks the point of attachment. pNA = O=[N+]([O-])c1ccc(N*)cc1 Some results are limits rather than exact numbers.

The IC50 is the point on the concentration scale where inhibition reaches its midpoint.

The target of the experiment is Genome polyprotein (dengue virus type 2, UniProt P29990). It counts as functional, Thailand/16681/1984.
Sequence of Genome polyprotein (P29990 1346-1475 limits assumed): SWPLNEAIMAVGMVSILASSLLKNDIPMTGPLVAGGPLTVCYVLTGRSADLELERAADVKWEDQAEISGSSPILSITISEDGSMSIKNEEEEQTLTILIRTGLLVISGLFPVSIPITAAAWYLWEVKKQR
Sequence of Genome polyprotein (P29990 1476-2093 limits assumed): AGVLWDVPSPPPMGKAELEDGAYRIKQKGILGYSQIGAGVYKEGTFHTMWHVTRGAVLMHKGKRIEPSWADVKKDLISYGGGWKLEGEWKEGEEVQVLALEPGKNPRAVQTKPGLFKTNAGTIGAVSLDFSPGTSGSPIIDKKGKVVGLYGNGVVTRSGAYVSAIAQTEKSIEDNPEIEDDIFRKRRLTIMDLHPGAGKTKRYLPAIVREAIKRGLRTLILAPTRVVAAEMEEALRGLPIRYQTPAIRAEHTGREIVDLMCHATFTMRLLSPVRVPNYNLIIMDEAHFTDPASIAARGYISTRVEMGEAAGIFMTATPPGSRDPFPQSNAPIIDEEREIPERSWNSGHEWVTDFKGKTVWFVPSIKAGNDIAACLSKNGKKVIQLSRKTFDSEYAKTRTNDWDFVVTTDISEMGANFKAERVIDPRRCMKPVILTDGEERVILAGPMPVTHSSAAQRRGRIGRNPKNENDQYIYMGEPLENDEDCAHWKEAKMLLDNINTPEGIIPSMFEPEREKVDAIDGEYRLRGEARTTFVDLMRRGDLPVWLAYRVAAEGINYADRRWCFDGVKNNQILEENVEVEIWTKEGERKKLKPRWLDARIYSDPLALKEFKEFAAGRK

Turning to `CCNC(=O)[C@@H](NC(=O)OCc1ccccc1)c1ccc(OCc2ccccc2)cc1`, the concentration for half-maximal inhibition (IC50) is above 99.5 µM.

In the case of `NCc1cccc(NC(=O)[C@@H](NC(=O)OCc2ccccc2)c2ccc(-c3ccc4scnc4c3)cc2)c1`, the IC50 turned out to be 42.9 µM. The value for `NC(=O)c1ccc(Cn2nnc(C=Cc3ccccc3)n2)cc1` was above 99.5 µM.

The compound `N[C@@H](Cc1c[nH]cn1)C(=O)N1CCC2(CC1)OCCc1cc(O)ccc12` gave an IC50 above 99.5 µM.

In turn, `CCn1c(=O)c(N2CCC[C@@H]2Cc2cccs2)nc2ccccc21` gave an IC50 above 99.5 µM.

Consider `Cn1ccnc1S(=O)(=O)N[C@@H](C(=O)Nc1cccc(CN)c1)c1ccc(OCc2ccccc2)cc1`, for which the IC50 was above 99.5 µM.

As to `N#Cc1ccc(S(=O)(=O)Nc2ccc(Oc3ccccc3Cl)cc2)c(C(=O)O)c1`, the IC50 was determined as 55.7 µM.

`CSCC[C@H](N)C(=O)N1CCC[C@H]1C(=O)Nc1ccc([N+](=O)[O-])cc1` (H-Met-Pro-pNA) displayed a half-inhibitory concentration (IC50) above 99.5 µM.

`NCc1cccc(NC(=O)[C@@H](NC(=O)OCc2ccccc2)c2ccc(-c3cncnc3)cc2)c1`: the IC50 is above 99.5 µM. In turn, `NC(=O)[C@H](c1c[nH]c2ccccc12)N1CCC(c2cnc3ccc[nH]c2-3)CC1` had an IC50 above 99.5 µM. `NCc1cccc(NC(=O)[C@@H](NC(=O)OCc2ccccc2)c2ccc(-c3ccnc4[nH]ccc34)cc2)c1` had an IC50 above 99.5 µM. As for `NCc1ccc(CNC(=O)[C@@H](NC(=O)OCc2ccccc2)c2ccc(OCc3ccccc3)cc2)cc1`, the figure is 16 µM and 8.53 µM and 8.03 µM; as for `CCn1c(=O)c(N2CC[C@H](CO)C2)nc2ccc(C(=O)OC)cc21`, 82.9 µM. As for `N#Cc1c(C(F)F)cccc1N1CCC(n2ncc(N)c2C(F)(F)F)CC1`, the figure is above 99.5 µM; as for `Cn1c(C(=O)N2CCCc3ccc(C(F)F)cc32)cc2c1CCNC2`, above 99.5 µM; as for `O=C(Nc1cc(Cl)cc(C(=O)Nc2nc3c(s2)CNC3)c1)OCc1ccccc1`, above 99.5 µM.

The compound `c1csc(-c2nnc(Sc3ncnc4sccc34)o2)c1` returned an IC50 above 99.5 µM. The value for `O=C(O)c1c(Br)sc2nnsc12` was 69.5 µM; that for `C[C@@H](O)c1cccc(N2CCC(c3nc(N)ncc3F)CC2)n1` was above 99.5 µM. The compound `CCn1cc(-c2cc(F)ccc2C)nc(N2CC[C@@H](CO)C2)c1=O` had an IC50 above 99.5 µM. As for `Cc1c(C(=O)Nc2ccc3c(c2)CCCC(=O)N3)cc(C2CC2)n1C`, the figure is above 99.5 µM. The value for `NCc1cccc(NC(=O)[C@@H](NS(=O)(=O)C[C@H]2CCCCO2)c2ccc(OCc3ccccc3)cc2)c1` was above 99.5 µM; that for `CCN1C(=O)CCc2cc(NS(=O)(=O)c3ccc(Cl)cc3C(=O)O)ccc21` was above 99.5 µM. As for `NCc1cccc(NC(=O)c2cc(NC(=O)OCc3ccccc3)c(=O)n3c2CCCC3)c1`, the figure is above 99.5 µM; as for `NCc1cccc(NC(=O)C2(CNC(=O)OCc3ccccc3)CCCC2)c1`, above 99.5 µM; as for `C1=C(c2cccnc2)CN(Cc2c[nH]c3ccccc23)CC1`, above 99.5 µM.

Compound `COC(=O)Cc1ccccc1-c1ccc(S(=O)(=O)Nc2ccc(Cl)cc2C(=O)O)cc1` had a concentration for half-maximal inhibition (IC50) of 35.5 µM. Take `COc1ccc(CNC(=O)[C@@H](NC(=O)OCc2ccccc2)c2ccc(OCc3ccccc3)cc2)cn1`: the IC50 was above 99.5 µM. The value for `CS(=O)(=O)Nc1ccc(C(=O)Nc2nc3ccccc3s2)cc1` was above 99.5 µM. In the case of `Cc1cc(-n2nccc2NC(=O)[C@]2(c3ccc(F)cc3)CCCNC2)ncn1`, the IC50 is above 99.5 µM. The value for `CCn1cnnc1COc1ccc(S(=O)(=O)Nc2ccc(Cl)cc2C(=O)O)cc1` was above 99.5 µM; that for `NCc1ccnc(CNC(=O)[C@@H](NC(=O)OCc2ccccc2)c2ccc(OCc3ccccc3)cc2)c1` was above 99.5 µM; that for `CCn1cc(-c2cccc(-c3ccccc3)c2)nc(N2CC[C@@H](CO)C2)c1=O` was above 99.5 µM. As for `CN(C(=O)c1cc(Cl)cc(NC(=O)OCc2ccccc2)c1)c1ccc(CN)cc1`, the figure is above 99.5 µM; as for `O=Cc1ccc(N2CCC(C(=O)NCCC3CCN(Cc4ccccc4)CC3)CC2)cc1`, 99.7 µM; as for `Brc1ccsc1CSc1cnn[nH]1`, above 99.5 µM. As for `Cc1noc(C)c1-c1ccc([C@@H](NC(=O)OCc2ccccc2)C(=O)Nc2cccc(CN)c2)cc1`, the figure is above 99.5 µM. `O=C(Nc1ccc2c(c1)CNC2)c1cccc2nc(C(F)(F)F)[nH]c12` returned an IC50 above 99.5 µM. As for `O=C(O)c1cc(Cl)ccc1NS(=O)(=O)c1ccc(N[C@H]2CCCOC2)nc1`, the figure is above 99.5 µM; as for `NCc1cccc(NC(=O)[C@H]2[C@@H]3CC[C@@H](C3)[C@H]2NC(=O)OCc2ccccc2)c1`, above 99.5 µM. As for `NCc1cccc(NC(=O)[C@@H](NC(=O)OCc2ccccc2)c2cccc(F)c2F)c1`, the figure is above 99.5 µM; as for `CCn1c(=O)c(N2CC[C@H](c3ccccc3)C2)nc2ccccc21`, above 99.5 µM. The value for `CCn1cc(S(=O)(=O)N[C@@H](C(=O)Nc2cccc(CN)c2)c2ccc(OCc3ccccc3)cc2)cn1` was above 99.5 µM; that for `O=C(C(=O)N1CCOCC1)c1c[nH]c2ccccc12` was above 99.5 µM; that for `CCN1CCN(c2ccc(NC(=O)C3CCN(c4ccc(C=O)cc4)CC3)cc2)CC1` was 73 µM. In the case of `O=C(Nc1ccc(F)nc1)Oc1ccccc1`, the IC50 is above 59.8 µM. The value for `Cc1csc(COc2cccc([C@H](NC(=O)OCc3ccccc3)C(=O)Nc3cccc(CN)c3)c2)n1` was 27.2 µM; that for `O=C(O)c1cscc1NS(=O)(=O)c1ccc(Oc2ccccc2Cl)cc1` was 34.1 µM.

Take `Cc1ccc(CN)cc1-c1cccc([C@H](NC(=O)OCc2ccccc2)C(=O)Nc2cccc(CN)c2)c1`: the IC50 was found to be 63.1 µM. The value for `CN(CCS(N)(=O)=O)C(=O)c1cc(Cl)ccc1NS(=O)(=O)c1ccc(Oc2ccccc2Cl)cc1` was 84 µM. In turn, `CC(=O)N1CCC[C@H]1C(=O)N[C@@H](C(=O)Nc1cccc(CN)c1)c1ccc(OCc2ccccc2)cc1` returned an IC50 above 99.5 µM. `c1ccc(CC2CCN(Cc3c[nH]c4ccccc34)CC2)cc1`: the IC50 was above 99.5 µM.

The compound `CS(=O)(=O)c1cc(NC(=O)OCc2ccccc2)cc(C(=O)Nc2cccc(CN)c2)c1` displayed an IC50 above 99.5 µM. The value for `CCn1cc(C(=O)N2CCN(C)CC2)nc(N2CC[C@@H](CO)C2)c1=O` was above 99.5 µM; that for `Cc1cccc(N2CCC(NS(=O)(=O)c3ccc(Cl)cc3C(=O)O)CC2)n1` was above 99.5 µM; that for `COC(=O)c1n[nH]cc1CN1CCC(c2nc3ccccc3s2)CC1` was above 99.5 µM.

Turning to `CCn1ccnc(N2CC[C@H](c3ccc(F)cc3)C2)c1=O`, the half-maximal inhibitory concentration (IC50) is above 99.5 µM. As for `Cn1ccc(Nc2ccc(S(=O)(=O)Nc3ccc(Cl)cc3C(=O)O)cn2)n1`, the figure is above 99.5 µM. Compound `CCn1c(=O)c(N2C[C@H]3COC(C)(C)OC[C@H]3C2)nc2ccccc21` had a concentration for half-maximal inhibition (IC50) above 99.5 µM. `NCc1cccc(NC(=O)[C@@H]2CCC[C@@H](NC(=O)OCc3ccccc3)C2)c1` yielded an IC50 above 99.5 µM. The value for `CN(Cc1cccnc1)Cc1c[nH]c2ccccc12` was above 99.5 µM; that for `CCN(C(=O)Cn1ccnc(N2CC[C@H](CO)C2)c1=O)C(C)C` was above 99.5 µM. As for `CNC(=O)c1cc(Cl)ccc1NS(=O)(=O)c1ccc(Oc2ccccc2Cl)cc1`, the figure is 33.7 µM; as for `CC[C@H](C#N)NC(=O)c1cc(Cl)ccc1NS(=O)(=O)c1ccc(Oc2ccccc2Cl)cc1`, 42.4 µM. Regarding `NCc1cccc(S(=O)(=O)Nc2cc(Cl)cc(NC(=O)OCc3ccccc3)c2)c1`, the IC50 is above 99.5 µM. The value for `CCn1c(=O)c(N2CCC[C@@H]2Cn2cncn2)nc2ccccc21` was above 99.5 µM.

Compound `CS(=O)(=O)NCc1cccc(CNC(=O)[C@@H](NC(=O)OCc2ccccc2)c2ccc(OCc3ccccc3)cc2)c1` had an IC50 above 99.5 µM. As for `O=C(O)c1cc(Cl)ccc1S(=O)(=O)Nc1ccc(CCN2CCCC2)cc1`, the figure is above 99.5 µM; as for `O=C(c1cc(Cl)ccc1NS(=O)(=O)c1ccc(Oc2ccccc2Cl)cc1)N1CCCC1`, 66.2 µM; as for `NCc1ccccc1C1CCN(C(=O)[C@@]23CNC[C@]2(C(F)(F)F)C3)CC1`, above 99.5 µM. As for `CCn1c(=O)c(N2CC[C@H](N3CCCC3=O)C2)nc2ccccc21`, the figure is above 99.5 µM. The value for `CCc1cc(C(=O)Nc2ccc3c(c2)CNC3)cc2cn[nH]c12` was above 99.5 µM; that for `O=C(O)c1cc(OC2CCOCC2)c(F)cc1NS(=O)(=O)c1ccc(Oc2ccccc2Cl)cc1` was 13.7 µM; that for `COc1cc(NC(=O)OCc2ccccc2)nc(C(=O)Nc2cccc(CN)c2)c1` was above 99.5 µM. For `O=C(O)c1cc(Cl)cc(F)c1NS(=O)(=O)c1ccc(Oc2ccccc2Cl)cc1`, half-maximal inhibition (IC50) was put at 18.6 µM.

`Cc1c(C(=O)Nc2ccc3c(c2)C(=O)N(C)C3)cc(C2CC2)n1C` had an IC50 above 99.5 µM. The value for `O=C(O)c1cc(Cl)ccc1NS(=O)(=O)c1ccc(-c2cccc(F)c2F)cc1` was 8.82 µM; that for `CCn1cc(-c2cnn(C)n2)nc(N2CC[C@@H](CO)C2)c1=O` was above 99.5 µM; that for `OCc1ccc(Cl)c(N2CCN(c3ccc4[nH]cnc4c3)CC2)n1` was above 99.5 µM. As for `CS(=O)(=O)c1ccc(N2CCN(C(=O)C3CCN(c4ccc(C=O)cc4)CC3)CC2)c([N+](=O)[O-])c1`, the figure is 85.7 µM; as for `O=C(O)c1cc(Cl)ccc1S(=O)(=O)NC1CCN(c2ccc(C(F)(F)F)cn2)CC1`, above 99.5 µM; as for `CCn1ccnc(N2CC[C@@H](C(=O)NC)C2)c1=O`, above 99.5 µM. As for `CNC(=O)c1cc(Br)cnc1NS(=O)(=O)c1ccc(Oc2ccccc2Cl)cc1`, the figure is 71.4 µM; as for `NCc1cccc(NC(=O)[C@@H](NC(=O)OCc2ccccc2)c2ccc(-c3ccncc3F)cc2)c1`, above 99.5 µM; as for `CCc1ccc(-c2cn(CC)c(=O)c(N3CC[C@@H](CO)C3)n2)s1`, above 99.5 µM. Compound `CCn1c(=O)c(N2CC3(CCCCC3)C[C@H]2CO)nc2ccccc21` registered an IC50 above 99.5 µM. With `O=C(O)c1cc(Cl)cc(NS(=O)(=O)c2ccc(-c3ccc(F)cc3)cc2)c1`, half-maximal inhibition (IC50) required 90.6 µM. The value for `CCn1ccnc(N2C[C@H](c3c[nH]c4ccccc34)[C@H](N3C(=O)c4ccccc4C3=O)C2)c1=O` was above 99.5 µM. `c1ccc2c(CN3CC(c4cscn4)C3)c[nH]c2c1` returned an IC50 above 99.5 µM. The value for `NCc1cccc(NC(=O)[C@@H](NC(=O)OCc2ccccc2)c2ccc(-c3ccccc3F)cc2)c1` was 10.4 µM.

The values above are taken from ChEMBL document CHEMBL5604063, “ASAP - DENV-2 NS2B-NS3 protease fluorescence dose response” (2024).
